Reference: the supplement of paper PMC10307832

Compound: OCc1c[nH]c2ccccc12 [Indole-3-carbinol] + CC(=O)c1c(C)c2cnc(Nc3ccc(N4CCNCC4)cn3)nc2n(C2CCCC2)c1=O [Palbociclib] (partner 0.5 µM)
Assay: relative viability (nuclei count vs DMSO), 5 days (fraction); higher = more cells survive
Method in brief: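 Five library-drug doses in √10 steps were combined with a fixed anchor-drug dose, or a single drug was given alone, by pin tool to lung cancer cell lines in 1536-well plates the day after seeding. Nuclei were stained and counted after 5 days. Relative viability is the nuclei count in treated wells over that in vehicle wells, taken as the median of duplicate plates.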

Cell Line	relative viability (first compound 0.253 µM)	relative viability (first compound 0.8 µM)	relative viability (first compound 2.53 µM)	relative viability (first compound 8 µM)
201T	0.357	0.396	0.356	0.34
A-427	0.52	0.568	0.547	0.491
ABC-1	0.681	0.807	0.794	0.735
BEN	0.495	0.445	0.512	0.485
CAL-12T	0.443	0.517	0.573	0.398
COR-L23	0.323	0.245	0.308	0.237
COR-L 105	0.439	0.408	0.41	0.397
ChaGo-K-1	0.942	0.939	0.994	0.968
EKVX	0.384	0.36	0.386	0.452
EMC-BAC-2	0.507	0.519	0.507	0.489
EPLC-272H	0.325	0.376	0.318	0.334
H3255	0.302	0.32	0.347	0.307
HARA	0.303	0.249	0.281	0.232
HCC-15	0.804	0.773	0.733	0.724
HCC-44	0.954	1.03	0.902	0.882
HCC-78	0.486	0.498	0.471	0.462
HCC-366	0.419	0.384	0.455	0.356
HCC-827	0.495	0.292	0.479	0.471
HOP-62	0.444	0.457	0.451	0.426
LC-2-ad	0.533	0.534	0.513	0.455
LCLC-97TM1	0.237	0.266	0.225	0.236
LCLC-103H	0.492	0.48	0.451	0.405
LK-2	0.674	0.489	1.05	0.703
LOU-NH91	0.492	0.547	0.535	0.497

Cell Line	relative viability (first compound 0.253 µM)	relative viability (first compound 0.8 µM)	relative viability (first compound 2.53 µM)	relative viability (first compound 8 µM)
LU99A	0.397	0.423	0.385	0.381
LXF-289	0.58	0.611	0.609	0.56
NCI-H23	0.435	0.463	0.546	0.419
NCI-H322M	0.456	0.481	0.506	0.476
NCI-H358	0.145	0.125	0.136	0.12
NCI-H441	0.202	0.267	0.249	0.185
NCI-H460	0.149	0.17	0.229	0.19
NCI-H520	0.225	0.183	0.21	0.217
NCI-H522	0.87	1.02	1.31	1.15
NCI-H647	0.392	0.318	0.292	0.433
NCI-H650	0.311	0.338	0.352	0.307
NCI-H661	0.426	0.412	0.447	0.444
NCI-H727	0.634	0.669	0.699	0.648
NCI-H838	0.191	0.203	0.231	0.223
NCI-H1355	0.401	0.379	0.43	0.392
NCI-H1395	0.625	0.589	0.734	0.531
NCI-H1437	0.296	0.346	0.296	0.305
NCI-H1650	0.376	0.341	0.338	0.351
NCI-H1651	0.53	0.521	0.524	0.495
NCI-H1666	0.667	0.694	0.667	0.626
NCI-H1734	0.352	0.376	0.331	0.31
NCI-H1755	0.489	0.444	0.487	0.423
NCI-H1792	0.74	0.634	0.675	0.697
NCI-H1793	0.346	0.281	0.298	0.315

Cell Line	relative viability (first compound 0.253 µM)	relative viability (first compound 0.8 µM)	relative viability (first compound 2.53 µM)	relative viability (first compound 8 µM)
NCI-H1915	0.5	0.521	0.532	0.486
NCI-H1944	0.338	0.279	0.304	0.311
NCI-H1975	0.699	0.704	0.554	0.644
NCI-H1993	0.713	0.635	0.664	0.521
NCI-H2009	0.213	0.188	0.169	0.226
NCI-H2023	0.396	0.469	0.334	0.375
NCI-H2085	0.469	0.492	0.451	0.439
NCI-H2087	0.193	0.278	0.27	0.262
NCI-H2126	0.299	0.366	0.362	0.34
NCI-H2170	0.384	0.375	0.41	0.42
NCI-H2228	0.75	0.771	0.645	0.78
NCI-H2347	0.426	0.471	0.419	0.407
NCI-H2405	0.513	0.554	0.553	0.491
NCI-H3122	0.188	0.196	0.176	0.183
PC-3 [JPC-3]	0.574	0.568	0.557	0.507
PC-14	0.538	0.509	0.541	0.462
RERF-LC-KJ	1.14	0.968	0.941	1.15
SK-LU-1	0.404	0.36	0.383	0.372
SK-MES-1	0.292	0.299	0.318	0.313
SW 900	0.557	0.501	0.589	0.527
SW 1573	0.377	0.41	0.449	0.37
UMC-11	0.338	0.34	0.319	0.32
